Literature values as cited in paper PMC6315591 (Marine Drugs, 2018).

System: muscle nAChR on BC3H-1 cells

With α-conotoxin MI as the substance, how does the “greater affinity at the α/δ versus α/γ interface” value read?
The value was 10,000 fold.
